Read-outs that look alike come from different tables or passages of the source. Marks after values point to notes of the source that are not given here.
Columns and labels:
CAM acetyltransferase = target: T1, CAM acetyltransferase (Escherichia coli, UniProt P62577); assay: CAM acetyltransferase assay (compounds as acetyl-acceptor substrates); format: biochemical, E. coli
T1 construct: purchased Sigma-Aldrich; host or cells: E. coli
Experimental: Fig 6 Kinetic analysis of the CAM acetyltransferase reaction using CAM or compounds 4 and 5 as substrates. […] The product of the enzymatic reaction, coenzyme A, reacted with 5,5’-dithio-bis(2-nitrobenzoic acid) to yield 5-thio-2-nitrobenzoate which absorbs at 412 nm, with a micromolar extinction coefficient equal to 0.0136. The Vmax and Km values were determined by fitting the substrate concentrations [S] and the obtained ΔA412nm/min (Vo) values into equation V 0 = V max[S]/(K m + [S]). The obtained Vmax values were divided by 0.0136 to convert their units in μM·min^-1 (http://www.sigmaaldrich.com/technical-documents/protocols/biology/enzymatic-assay-of-chloramphenicol-acetyltransferase.html). The ratio Vmax/Km for each curve is given in parenthesis. TEXT PRINTED IN THE PICTURE: no label printed: (0.178 min^-1) | no label printed: (0.139 min^-1) | no label printed: (0.008 min^-1) DOUBTS OF THE COPYIST ABOUT THIS PICTURE: The picture prints no substance label and no measure name for the three values. They stand beside the curves marked with triangles (0.178 min^-1), circles (0.139 min^-1) and squares (0.008 min^-1). […]

MRSA (GRE2272) = assay: Antibacterial activity (growth inhibition, EC50); format: cell-based; settings: Staphylococcus aureus
From the text: (§1) A.S. Mankin (University of Illinois). E. coli ΔtolC strain BL21 DE3 with impaired AcrAB-TolC, a proton-dependent MDR efflux pump causing multidrug resistance, was offered by Dr D.N. Wilson (University of Munich) and included in our study to test if this mechanism of resistance affects the efficacy of CAM dimers. […] I. Spiliopoulou (National Reference Laboratory for Staphylococci, School of Medicine, University of Patras, Greece). Finally, E. coli strain Rosetta(DE3)pLysS, containing a chloramphenicol resistant gene in the pLysS plasmid, was purchased from Novagen and was also included in our study. Briefly, S. aureus or E. coli cells (200 μl of a 0.700 OD560 preculture) containing wild-type or mutant ribosomes were added in 3.8 ml of LB (Luria-Bertani) medium and grown at 37°C in the presence or absence of CAM or CAM dimers until the optical density of the control culture (grown in the absence of drug) reached the value 0.700 at 560 nm. For E. faecium and P. aeruginosa cultures, TSB (Tryptic Soy Broth) medium was used, instead of LB medium, in order to achieve exponential doubling times between 25 and 35 minutes. From dose-response curves, the half-maximal effective concentration (EC50) for each compound and strain was estimated. EC50 represents the molar concentration of a compound that produces 50% of the maximal possible effect. The EC50 values were mathematically determined by non linear regression fitting of the observed culture optical-density values, expressed as the percentage of 0.700 (y), into Hill Equation, y=min+max−min/1+(x/EC50)^−n where min and max are the lowest and highest observed values of the culture optical density, respectively, x the concentration of the tested compound, and n the Hill coefficient that represents the largest absolute value of the curve slope. EC50 is equal to the x- value of the sigmoid’s midpoint. Fitting was performed using the Four Parameter Logistic Curve of the SigmaPlot Program Version 11.0 (Systat Software, Inc) for Exact Graphs and Data Analysis.

S. aureus (WT) = assay: Antibacterial activity (growth inhibition, EC50); format: cell-based; settings: Staphylococcus aureus
From the text: as §1

MRSA (GRE2691) = assay: Antibacterial activity (growth inhibition, EC50); format: cell-based; settings: Staphylococcus aureus
From the text: as §1

E. faecium (GRE5152) = assay: Antibacterial activity (growth inhibition, EC50); format: cell-based; settings: Enterococcus faecium
From the text: as §1

[1] = system: 70S ribosomes from E. coli (central loop of Domain V of 23S rRNA); assay: Time-resolved footprinting of RI and R*I complexes; format: binding; settings: ratio to control lane R
From the text: The behavior of compound 5 was compared to that of compound 4, which is bearing a flexible linker of the same length. The footprinting analysis exploits the slow-binding character of the dimers and has been successfully applied in studying various slow-binding inhibitors of the PTase. To overcome potential drawbacks resulting from protections caused by natural PTase substrates, naked 70S ribosomes were used instead of complex C. To footprint the RI complex, compounds 4 or 5 used in excess, and ribosomes were incubated at 25°C for 2 s, and then treated with chemical probes for 3 min to modify accessible nucleosides in 23S rRNA. Because the first step of binding, R + I ⇄ RI, equilibrates rapidly while the formation of R*I occurs slowly, the main product formed during such a short time interval was complex RI (>93%). To footprint the R*I complex, each dimer and ribosomes were incubated for 10 min, a time interval that is over than ten half-lives required for the attainment of the steady state. Because the isomerization constant, k on/k off, is at least 2.2 (see Table 1), most of the ribosomes added in the reaction mixture (>70%) were in the form of R*I complex at the end of this time interval.
Chemical modification of complexes RI and R*I with DMS, kethoxal, or CMCT, primer extension analysis, and gel electrophoresis of the primer extension products were performed as previously described. […] Quantitative scanning of the gels, and normalization of the band intensities were made as previously shown. Values indicated in Table 2 denote the ratio between the normalized intensity of a band of interest and the normalized intensity of the corresponding band in the control lane (ribosomes non-treated with CAM or CAM dimers).

[2] = LB medium, 37°C, OD560, read-out: EC50
[3] = R*I complex (10 min incubation)

T1 sequence (P62577 whole entry, looked up): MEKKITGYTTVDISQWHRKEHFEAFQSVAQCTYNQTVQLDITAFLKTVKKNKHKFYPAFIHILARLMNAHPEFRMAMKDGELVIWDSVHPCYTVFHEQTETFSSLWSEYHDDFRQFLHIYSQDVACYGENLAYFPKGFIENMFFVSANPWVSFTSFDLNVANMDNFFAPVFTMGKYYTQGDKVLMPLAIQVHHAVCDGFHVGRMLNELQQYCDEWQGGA

In the case of `O=C(N[C@H](CO)[C@H](O)c1ccc([N+](=O)[O-])cc1)c1ccc(C(=O)N[C@H](CO)[C@H](O)c2ccc([N+](=O)[O-])cc2)cc1` [Compound 5, N^1,N^4-Bis ((1R,2R)-1,3-dihydroxy-1-(4-nitrophenyl)propan-2-yl)-terephthalamide], the “behaviour as substrate of CAM acetyltransferase” value (CAM acetyltransferase) is reported as “almost inactive”, the EC50 (MRSA (GRE2272); [2]) is reported as 16.9 ± 4.4 µM and the EC50 (S. aureus (WT); [2]) is reported as 15.4 ± 1.9 µM. The EC50 (MRSA (GRE2691); [2]) was 24 ± 3.1 µM, the EC50 (E. faecium (GRE5152); TSB medium, 37°C, OD560, read-out: EC50) was 40.9 ± 3.8 µM and the “Relative reactivity of A2058” value [1, 3] was 0.32 ± 0.04 ^b ^, ^c. The “Relative reactivity of A2059” value ([1]; R*I complex) was 0.33 ± 0.08 ^b ^, ^c, the “Relative reactivity of A2062” value ([1]; R*I complex) was 0.40 ± 0.09 ^b ^, ^c and the “Relative reactivity of A2451” value ([1]; R*I complex) was 0.41 ± 0.05 ^c. The “Relative reactivity of G2505” value ([1]; R*I complex) was 0.35 ± 0.06 ^c, the “Relative reactivity of U2506” value ([1]; R*I complex) was 0.33 ± 0.05 ^b ^, ^c and the “Relative reactivity of U2609” value ([1]; R*I complex) was 0.79 ± 0.08 ^b ^, ^c. The “Relative reactivity of A2058” value ([1]; RI complex (2 s incubation)) was 0.93 ± 0.06, the “Relative reactivity of A2059” value ([1]; RI complex) was 0.96 ± 0.08 and the “Relative reactivity of A2062” value ([1]; RI complex) was 0.80 ± 0.06 ^b. The “Relative reactivity of A2451” value ([1]; RI complex) was 0.40 ± 0.03 ^b, the “Relative reactivity of G2505” value ([1]; RI complex) was 0.38 ± 0.05 ^b and the “Relative reactivity of U2506” value ([1]; RI complex) was 0.47 ± 0.05 ^b. The “Relative reactivity of U2609” value ([1]; RI complex) was 1.00 ± 0.08.
In the case of `O=C(CCCCC(=O)N[C@H](CO)[C@H](O)c1ccc([N+](=O)[O-])cc1)N[C@H](CO)[C@H](O)c1ccc([N+](=O)[O-])cc1` [Compound 4, N^1,N^6-Bis((1R,2R)-1,3-dihydroxy-1-(4-nitrophenyl)propan-2-yl)adipamide], the “behaviour as substrate of CAM acetyltransferase” value (CAM acetyltransferase) is reported as “behaves like CAM as substrate of CAM acetyltransferase”, the EC50 (MRSA (GRE2272)) is reported as > 200 µM and the EC50 (S. aureus (WT)) is reported as 28.3 ± 1.8 µM. The EC50 (MRSA (GRE2691)) was 76.9 ± 8.6 µM, the EC50 (E. faecium (GRE5152)) was 99.8 ± 46.9 µM and the “Relative reactivity of A2058” value [1, 3] was 0.90 ± 0.09. For the same compound, the “Relative reactivity of A2059” value ([1]; R*I complex) was 0.70 ± 0.07 ^b ^, ^c, the “Relative reactivity of A2062” value ([1]; R*I complex) was 0.67 ± 0.05 ^b ^, ^c and the “Relative reactivity of A2451” value ([1]; R*I complex) was 0.77 ± 0.05 ^b. For the same compound, the “Relative reactivity of G2505” value ([1]; R*I complex) was 0.44 ± 0.03 ^b, the “Relative reactivity of U2506” value ([1]; R*I complex) was 0.70 ± 0.04 ^b and the “Relative reactivity of U2609” value ([1]; R*I complex) was 1.00 ± 0.07. The “Relative reactivity of A2058” value ([1]; RI complex (2 s incubation)) was 0.99 ± 0.07, the “Relative reactivity of A2059” value ([1]; RI complex) was 0.94 ± 0.06 and the “Relative reactivity of A2062” value ([1]; RI complex) was 0.88 ± 0.08 ^b. The “Relative reactivity of A2451” value ([1]; RI complex) was 0.67 ± 0.04 ^b, the “Relative reactivity of G2505” value ([1]; RI complex) was 0.43 ± 0.03 ^b and the “Relative reactivity of U2506” value ([1]; RI complex) was 0.70 ± 0.05 ^b. The “Relative reactivity of U2609” value ([1]; RI complex) was 1.00 ± 0.10.

Reference: PMC4533973, “Synthesis and Evaluation of Chloramphenicol Homodimers: Molecular Target, Antimicrobial Activity, and Toxicity against Human Cells” (PLoS ONE, 2015)
